Measured values reported in BindingDB's records for doi:10.1254/jjp.52.195 (Niigata College of Pharmacy, 1990).

Tests used:
[1] = target: Beta-2 adrenergic receptor (Rattus norvegicus, UniProt P10608)
[2] = target: 5-hydroxytryptamine receptor 1B (Rattus norvegicus, UniProt P28564)
[3] = target: Beta-1 adrenergic receptor (Rattus norvegicus, UniProt P18090)
Sequence of Beta-1 adrenergic receptor (P18090 whole entry): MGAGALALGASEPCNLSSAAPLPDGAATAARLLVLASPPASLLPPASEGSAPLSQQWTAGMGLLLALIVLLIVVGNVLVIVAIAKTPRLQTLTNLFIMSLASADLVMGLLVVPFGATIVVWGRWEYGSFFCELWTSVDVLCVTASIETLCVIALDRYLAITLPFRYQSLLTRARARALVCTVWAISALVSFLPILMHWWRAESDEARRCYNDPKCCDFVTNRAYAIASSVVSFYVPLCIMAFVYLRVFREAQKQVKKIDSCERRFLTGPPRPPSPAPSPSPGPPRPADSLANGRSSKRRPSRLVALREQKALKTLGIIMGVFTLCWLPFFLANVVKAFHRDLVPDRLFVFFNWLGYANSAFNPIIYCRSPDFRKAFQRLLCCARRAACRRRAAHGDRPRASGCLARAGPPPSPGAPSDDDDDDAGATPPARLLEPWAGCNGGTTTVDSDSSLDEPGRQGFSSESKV

Sequence of 5-hydroxytryptamine receptor 1B (P28564 whole entry): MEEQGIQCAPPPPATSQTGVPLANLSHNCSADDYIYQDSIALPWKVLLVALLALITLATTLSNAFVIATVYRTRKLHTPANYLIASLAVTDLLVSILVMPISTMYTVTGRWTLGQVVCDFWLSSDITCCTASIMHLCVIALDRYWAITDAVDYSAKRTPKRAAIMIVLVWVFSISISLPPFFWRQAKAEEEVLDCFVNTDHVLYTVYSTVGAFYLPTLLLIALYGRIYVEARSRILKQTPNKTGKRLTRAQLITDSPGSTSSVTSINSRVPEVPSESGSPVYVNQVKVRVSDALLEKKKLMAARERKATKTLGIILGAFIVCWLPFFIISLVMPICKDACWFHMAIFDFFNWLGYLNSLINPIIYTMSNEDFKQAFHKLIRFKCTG
Sequence of Beta-2 adrenergic receptor (P10608 whole entry): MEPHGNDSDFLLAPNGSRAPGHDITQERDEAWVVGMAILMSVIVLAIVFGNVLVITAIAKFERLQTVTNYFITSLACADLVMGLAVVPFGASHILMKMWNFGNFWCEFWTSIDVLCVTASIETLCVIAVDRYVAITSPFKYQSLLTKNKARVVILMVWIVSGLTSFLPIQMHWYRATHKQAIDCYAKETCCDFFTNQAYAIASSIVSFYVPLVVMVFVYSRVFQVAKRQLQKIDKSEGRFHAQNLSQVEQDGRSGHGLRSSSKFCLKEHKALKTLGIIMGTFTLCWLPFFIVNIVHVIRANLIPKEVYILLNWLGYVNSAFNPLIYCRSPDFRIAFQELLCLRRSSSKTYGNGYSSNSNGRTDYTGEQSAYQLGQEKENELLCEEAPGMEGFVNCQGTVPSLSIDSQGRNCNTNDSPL

SMILES	Ki [1] [nM]	Ki [2] [nM]	Ki [3] [nM]
CC(C)(C)NCC(O)CSc1nc(-c2ccc(C(N)=O)s2)cs1 (stereo not drawn) [CAS_52560-77-7]	0.55	10.7	0.18
CC(C)NC[C@H](O)COc1ccc(CCOCC2CC2)cc1 [[(2S)-3-{4-[2-(cyclopropylmethoxy)ethyl]phenoxy}-2-hydroxypropyl](propan-2-yl)amine]		> 10000	
CC(=O)Nc1ccc(OCC(O)CNC(C)C)cc1 (stereo not drawn) [Practolol,(-)]		> 10000	245
CC(C)NCC(O)c1ccc(NS(C)(=O)=O)cc1 (racemic) [Sotalol,(-)]		> 10000	
CC(CCc1ccccc1)NCC(O)c1ccc(O)c(C(N)=O)c1 (stereo not drawn) [2-hydroxy-5-{1-hydroxy-2-[(4-phenylbutan-2-yl)amino]ethyl}benzamide]		2000	12
CC(C)NCC(O)COc1cccc2[nH]ccc12 (stereo not drawn) [LB-46]			0.66
Cc1ccc(OC[C@@H](O)[C@H](C)NC(C)C)c2c1CCC2 [ICI 118,551]		3890	195
COCCc1ccc(OC[C@H](O)CNC(C)C)cc1 [d-Metoprolol]		> 10000	
C=CCOc1ccccc1OCC(O)CNC(C)C (stereo not drawn)	9.77	174	7.76
COc1ccccc1OCCNCC(O)c1ccc(C)c(S(N)(=O)=O)c1 (stereo not drawn) [CAS_93633-92-2]	13.2	1290	4.37
COCCc1ccc(OCC(O)CNC(C)C)cc1 (stereo not drawn) [Betalok]		> 10000	
C=CCc1ccccc1OC[C@@H](O)CNC(C)C [ALPRENOLOL,(-)]		70.8	
COc1ccc(OC)c([C@@H](O)[C@H](C)NC(C)(C)C)c1 [CAS_1937-89-9]	468	> 10000	3720
CC(C)CNCC(O)COc1cccc2ccccc12 (stereo not drawn)	2.45	56.2	2.82
COCCc1ccc(OC[C@@H](O)CNC(C)C)cc1 [l-Metoprolol]		> 10000	
